According to patent US20260325605A1, “INHIBITORS” (Zealand Pharma A/S, priority 2022, published 2026):
Where two headings read alike, the source gives them in different places.

Columns and labels:
[1] = Example 6: Pharmacokinetic characterisation after s.c. administration; type: in vivo, rat (Sprague Dawley or Wistar); details: rat, 70 nmol/kg
Method: Sprague Dawley or Wistar rats (males with a body weight of approximately 250-350 g) were given a single subcutaneous (s.c.) injection of each peptide to be tested.
Following s.c. administration of the selected peptides (dose 70 nmol/kg, dosing volume either 2 or 5 mL/kg), blood samples were drawn at 15 min, 30 min, 45 min, 60 min, 90 min, 2 h, 3 h, 4 h post-dose. At each sampling time point, samples from the rats were drawn by sublingual bleeding or by tail cut. After last sampling the rats were sacrificed by O2/CO2 anaesthesia. The dosing vehicle was 10 mM phosphate, 0.8% NaCl, 0.05% Polysorbate 20 (pH 6.0).
Plasma samples were analyzed after solid phase extraction (SPE) by liquid chromatography mass spectrometry (LC-MS/MS). Mean plasma concentrations were used for calculation of the pharmacokinetic parameters using the non-compartmental approach in Phoenix WinNonlin 6.4 or a later version. […]. AUCinf is the area under the plasma concentration−time curve extrapolated to infinity (AUCinf=AUClast+Clast/λz, where Clast is the last observed plasma concentration). Cmax is the maximum observed concentration, occurring at Tmax.

[2] = test system: T-cell activation in rat whole blood; test: Example 4: IL-17A release in thapsigargin stimulated rat whole blood; type: cell-based, rat (Lewis or Sprague-Dawley); details: 24 Hr, at least 2 replicates, unit inferred, read-out: IC50 (inhibition of IL-17A release)
Method in brief: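 Heparinised whole blood from naïve Lewis or Sprague-Dawley rats preincubated ≥5 min at RT with peptide, then stimulated with thapsigargin (40 μM stock added as one quarter of well volume) for 24 h at 37 °C. Supernatant IL-17A measured by ELISA; IC50 from curves normalised to stimulated and unstimulated controls, ≥2 replicates.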

[3] = target: T1, Kv1.6 (Homo sapiens, UniProt P17658); test: Patch clamp assay (QPatch), Kv1.6; type: cell-based
T1 construct: expressed in transfected cells
T1 sequence (P17658 whole entry): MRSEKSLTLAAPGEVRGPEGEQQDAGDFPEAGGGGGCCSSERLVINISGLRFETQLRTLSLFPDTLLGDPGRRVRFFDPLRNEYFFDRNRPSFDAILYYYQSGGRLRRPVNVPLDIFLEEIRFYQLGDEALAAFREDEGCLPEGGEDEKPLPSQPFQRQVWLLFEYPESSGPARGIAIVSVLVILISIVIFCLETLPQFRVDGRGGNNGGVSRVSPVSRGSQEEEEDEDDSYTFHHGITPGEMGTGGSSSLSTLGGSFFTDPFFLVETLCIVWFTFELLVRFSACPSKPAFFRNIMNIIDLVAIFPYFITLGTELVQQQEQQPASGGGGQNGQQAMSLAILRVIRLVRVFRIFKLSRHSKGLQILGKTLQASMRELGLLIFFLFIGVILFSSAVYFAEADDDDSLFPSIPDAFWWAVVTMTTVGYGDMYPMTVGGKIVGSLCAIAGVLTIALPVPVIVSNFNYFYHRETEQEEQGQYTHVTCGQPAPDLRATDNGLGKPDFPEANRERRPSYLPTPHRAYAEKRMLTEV
Method: Selectivity of Kv1.3 inhibitor peptides for Kv1.3 over other potassium ion channels (Kv1.1, Kv1.2 and Kv1.6) was determined using patch clamp assay.
Chinese Hamster Ovary (CHO) cell lines stably expressing exogenous human α-subunits of each potassium ion channel were grown and passaged under standard culture conditions.
The automated, chip-based planar patch clamp device QPatch® was used to quantitate the ionic currents. All recordings were made in the conventional whole-cell configuration after establishment of gigaohm seals. […] During experiments 0.1% (v/v) BSA was included as a vehicle in all external recording solutions. Currents were elicited from a holding potential of −80 mV using a voltage protocol, which shifted the voltage to 30 mV for 500 ms every 15 s.
Concentration-response relationships were established by cumulatively applying seven escalating concentrations of test sample to an individual cell with a recording period of 2 min per compound application.
The efficacy was determined as the mean charge for the last three sweeps at the end of each concentration application period from the cursor positions. The percent inhibition for each test dose application period was calculated as the reduction in mean cursor value (charge) relative to the cursor value measured at the end of the vehicle period and used to calculate the IC50 from the concentration response curve.

[4] = test system: T-cell activation in human whole blood; test: Example 5: IFN-g, IL-2 and IL-17A release in thapsigargin stimulated human whole blood; type: cell-based; details: 24 Hr, at least 2 replicate experiments
From the text: Human whole blood was used to assess the potency of Kv1.3 inhibitor peptides on T-cell activation as determined by release of the cytokines IFN-g, IL-2 and IL-17A after stimulation with thapsigargin. Addition of thapsigargin activates a signalling cascade resulting in T cell proliferation and cytokine production, in which the Kv1.3 ion channel plays a key role. Activity of Kv1.3 inhibitors in human primary T cells can thus be measured in this experimental system.
Human whole blood was obtained from healthy blood donors and was collected after informed consent using Sodium Heparin blood sampling tubes (Becton, Dickinson and Company (BD), Cat #367876). Test peptides were diluted to 4× final testing concentrations in assay buffer (Dulbecco's Modified Eagle's medium (DMEM) with high glucose and GlutaMAX (3.97 mM L-alanine-L-glutamine) (Gibco Cat #61965026) supplemented with 25 mM HEPES buffer, 1 mM Sodium Pyruvate, 100 units/ml Penicillin, 100 μg/ml Streptomycin and 0.05% Casein from bovine milk (Sigma-Aldrich Cat #C4765)) and 25 μl was added to wells of a 96 well tissue culture plate. Then 50 μl human whole blood was added and incubated for minimum 5 minutes at room temperature to allow compound binding. Then 25 μl of 40 μM thapsigargin diluted in assay buffer was added to all wells of the assay plates to activate the cells, followed by incubation for 24 Hr at 37° C./5% CO2 in a humidified box. The assay plates were centrifuged for 10 min at 300 g at 4° C. and the supernatants were transferred to new plates. The concentrations of IFN-g, IL-2 and IL-17A released to the supernatants were measured using a tri-plex human cytokine detection kit (MSD Human U-Plex IFN-g, IL-2 and IL-17A kit; Meso Scale Discovery Cat #K15067L-2) and all three cytokines were measured using a MSD MESO QuickPlex SQ 120 instrument as described by the manufacturer (Meso Scale Discovery, Rockville, Maryland, USA).
To determine the potency of inhibition for the compounds, the cytokine concentration data were fitted using a three parameter logistic dose response model based on the formula Y=Bottom+(Top−Bottom)/(1+IC50/X), where Y is measured cytokine concentrations, X is compound concentrations and Top, bottom and IC50 are parameters fitted using the software Graphpad Prism version 5.04. The IC50 value calculated from the concentration response curve represents the compound concentration that gives an inhibition response halfway between the basal (Bottom) response and the maximal (Top) response.
All values are derived from at least 2 replicate experiments. All of the tested Kv1.3 blockers were able to inhibit cytokine production from human T cells present in human whole blood that was stimulated with thapsigargin.

Q: Which results are given for “H-P[Nle]E[Nle]RC(1)SASVEC(2)KQKC(3)LAAIGSIFGKC(1)[Nle]NKKC(2)KC(3)YPR-OH [Peptide 100]”?
A: AUCINF ([1]; plasma): 0.112 µM·h; Cmax ([1]; plasma): 52.6 nM; T1/2 ([1]; plasma terminal elimination half-life): 1.04 h; IC50 [2]: 0.43 nM; IC50 ([3]; QPatch, CHO cells stably expressing human Kv1.6, read-out: Potency IC50, Kv1.6): > 3000 nM; Selectivity Kv1.6/Kv1.3 ([3]; ratio of IC50 Kv1.6/Kv1.3): >9100; IC50 ([4]; read-out: Average IC50, IFN-g): 0.11 nM; IC50 ([4]; read-out: Average IC50, IL-2): 0.095 nM; IC50 ([4]; read-out: Average IC50, IL-17A): 0.15 nM
